In patent US11771738B2 (Zoetis Services LLC, priority 2018, dated 2023):
Like-named read-outs stand apart in the source and are kept apart here.

What was measured:
[1] = tested on: circulating microfilariae; conditions: dog, in vivo
[2] = tested on: circulating microfilariae; assay: Heartworm Positive Dog Studies
D. immitis L4 larvae = assay: Dirofilaria immitis, L4 Stage (DiL4) In Vitro Assay; type: cell-based; conditions: ratio of DiMf MED to DiL4 MED

“(3S,6R,9S,12R,15S,18R,21S,24R)-6-benzyl-18-(4-(hydroxy(6-methoxypyridin-3-yl)methyl)benzyl)-3,9,15,21-tetraisobutyl-4,10,12,16,22,24-hexamethyl-1,7,13,19-tetraoxa-4,10,16,22-tetraazacyclotetracosan-2,5,8,11,14,17,20,23-octaone [Example 3-9]” was tested, and the “adverse effects / clinical observations” value [1] was “no adverse effects observed”, the “% Reduction of MF, Day 0, Post-dose, 2 hours” value (“% Reduction of MF … 2 hours” for short) ([2]; dog, in vivo) was −11% and the “% Reduction of MF, Day 1” value ([2]; dog, in vivo) was −28%. The “% Reduction of MF, Day 7” value ([2]; dog, in vivo) was −50%, the “Mean MF/mL, Day 0, Post-dose, 2 hours” value ([2]; dog, in vivo) was 20,000 MF/mL and the “Mean MF/mL, Day 0 Pre-dose” value ([2]; dog, in vivo) was 18,000 MF/mL. The “Mean MF/mL, Day 1” value ([2]; dog, in vivo) was 23,000 MF/mL, the “Mean MF/mL, Day 7” value ([2]; dog, in vivo) was 25,000 MF/mL and the “% Reduction of MF, Day 14” value ([2]; dog, in vivo, po, 3 mg/kg) was −22%. The “% Reduction of MF, Day 21” value ([2]; dog, in vivo, po, 3 mg/kg) was −33%, the “Mean MF/mL, Day 14” value ([2]; dog, in vivo, po, 3 mg/kg) was 22,000 MF/mL and the “Mean MF/mL, Day 21” value ([2]; dog, in vivo, po, 3 mg/kg) was 24,000 MF/mL.

For CC(C)C[C@H]1C(=O)O[C@H](Cc2ccc(N3CCOCC3)cc2)C(=O)N(C)[C@@H](CC(C)C)C(=O)O[C@H](C)C(=O)N(C)[C@@H](CC(C)C)C(=O)O[C@H](Cc2ccc(N3CCOCC3)cc2)C(=O)N(C)[C@@H](CC(C)C)C(=O)O[C@H](C)C(=O)N1C [emodepside, Emodepside, reference compound], the “adverse effects / clinical observations” value ([2]; heartworm positive dogs, oral, emodepside 1 mg/kg, Example 3-9 3 mg/kg) was “all treated dogs exhibited adverse effects consistent with dead or dying circulating microfilariae”, the “Mean MF/mL, Day 0, Post-dose, 2 hours” value ([2]; heartworm positive dogs, oral, emodepside 1 mg/kg, Example 3-9 3 mg/kg, 2 hours post-dose, blood) was 8,300 MF/mL and the “Mean MF/mL, Day 0 Pre-dose” value ([2]; heartworm positive dogs, oral, emodepside 1 mg/kg, Example 3-9 3 mg/kg, Day 0 pre-dose, blood) was 61,000 MF/mL. For the same compound, the “Mean MF/mL, Day 1” value ([2]; heartworm positive dogs, oral, emodepside 1 mg/kg, Example 3-9 3 mg/kg, Day 1, blood) was 4,500 MF/mL, the “Mean MF/mL, Day 7” value ([2]; heartworm positive dogs, oral, emodepside 1 mg/kg, Example 3-9 3 mg/kg, Day 7, blood) was 8,800 MF/mL and the “% Reduction of MF … 2 hours” value ([2]; vs pre-dose (day 0) levels, oral, emodepside 1 mg/kg, Example 3-9 3 mg/kg, 2 hours post-dose) was 87%. For the same compound, the “% Reduction of MF … 2 hours” value ([2]; vs pre-dose (day 0) levels, oral, emodepside 1 mg/kg, Example 3-9 3 mg/kg, 2 hours post-dose, listed as Emodepside) was 87%, the “% Reduction of MF, Day 1” value ([2]; vs pre-dose (day 0) levels, oral, emodepside 1 mg/kg, Example 3-9 3 mg/kg, Day 1) was 93% and the “% Reduction of MF, Day 7” value ([2]; vs pre-dose (day 0) levels, oral, emodepside 1 mg/kg, Example 3-9 3 mg/kg, Day 7) was 86%. The “selectivity against D. immitis L4 (DiMf/DiL4)” value (D. immitis L4 larvae) was 1 ×.
